Assay results from patent publication US8853190B2, “Steroids having increased water solubility and resistance against metabolism, and methods for their production” (Umecrine AB, priority 2006, dated 2014).

Assay: HPLC retention times (reverse phase) as a measure of hydrophilicity
Assay type: physicochemical
Details: reverse phase C18 3.5 μm 4.6×75 mm; 45° C.; flow 1.0 mL/min; isocratic 40:60 v/v H2O:MeOH; shorter retention times correspond to higher hydrophilicity
Experimental: HPLC Retention Times [min] for Compounds According to the Invention
HPLC Conditions: Waters's SYMMETRY® HPLC column system (C18 3.5 μm 4.6×75 mm); T: 45° C.; flow 1.0 mL/min; isocratic eluent conditions 40:60 v/v/H2O:MeOH. Injection volume: 100 μL.
Solvents used for eluent are of HPLC grade, water filtered through a Millipore apparatus; all solvents were filtered through a 0.45 μm Millipore filter and degassed by N2 stream prior use.
Since the analyses are carried in reverse phase, shorter retention times correspond to higher hydrophilicity.
For `CC(=O)[C@H]1CC[C@H]2[C@@H]3CC[C@H]4C[C@@H](O)CC[C@]4(C)[C@H]3CC[C@]12C` [3β-5α-pregnan-20-one, reference compound], the “retention time” value was 30.0 min.
In the case of `CC(=O)[C@H]1CC[C@H]2[C@@H]3CC[C@@H]4C[C@@H](O)CC[C@]4(C)[C@H]3CC[C@]12C` [3β-5β-pregnan-20-one, reference compound], the “retention time” value is reported as 24.4 min.
With `C#C[C@@]1(O)CC[C@@]2(C)[C@@H](CC[C@@H]3[C@@H]2CC[C@]2(C)C(=O)CC[C@@H]32)C1` [UC 2021, 3β-ethynyl, 3α-hydroxyl, androstan-17-one] the “retention time” value was 7.8 min.
In the case of `C#C[C@]1(O)C=C2CCC3C(CC[C@@]4(C)C3CC[C@@H]4C(C)=O)[C@@]2(C)CC1` (stereo partly drawn) [UC 2024, 3β-ethynyl, 3α-hydroxyl, Δ4-pregnen-20-one], the “retention time” value is reported as 14.0 min.
With `C#C[C@@]1(O)CC[C@@]2(C)C(CC[C@@H]3[C@@H]2CC[C@]2(C)/C(=N\O)CC[C@@H]32)C1` (stereo partly drawn) [UC 2025, 3β-ethynyl, 3α-hydroxyl, androstan-17-one oxime] the “retention time” value was 13.9 min.
With `C#C[C@@]1(O)CC[C@@]2(C)[C@@H](CC[C@@H]3[C@@H]2CC[C@]2(C)[C@@H](/C(C)=N/O)CC[C@@H]32)C1` [UC 2026, 3β-ethynyl, 3α-hydroxyl, 5α-pregnan-20-one oxime] the “retention time” value was 16.9 min.
